The source of these data is article PMC6792352, “Limited Chemical Structural Diversity Found to Modulate Thyroid Hormone Receptor in the Tox21 Chemical Library” (Environmental Health Perspectives, 2019).

Where a name gives a salt, the structure may show the parent alone. Read-outs that look alike come from different tables or passages of the source.

Series [1] in a line: in vitro. The settings on record: rat.
Series [2] deals with thyroid hormone receptor (endogenous TRα and TRβ). As to the kind of experiment: GH3-TRE-Antag primary qHTS, luciferase reporter, antagonist mode with 1 nM T3 (TOX21_TR_LUC_GH3_Antagonist, aeid 804). Format: cell-based, rat. In general terms: qHTS replaces the single test concentration by a dilution series.
For series [3] the test system is unchanged. As to the kind of experiment: GH3-TRE-Ag primary qHTS, luciferase reporter, agonist mode (TOX21_TR_LUC_GH3_Agonist, aeid 803). Format: cell-based, rat.
Series [4] can be described thus: in vitro. The settings on record: rat, gh3-tre-luc cells.
The subject of series [5] is GH3-TRE-Luc cell line.
In series [6] the test system is Tox21 cell viability assays (different cell types). Description: Global cytotoxicity: eighteen Tox21 cell viability assays. It counts as cell-based.
The test system of series [7] is GH3-TRE-Luc cell line. Description: GH3-TRE-Via cell viability, CellTiter-Fluor (TOX21_TR_LUC_GH3_Antagonist_viability, aeid 805).
Setting [8] is: antagonist mode, 1 nM T3, read-out: GH3-TRE-Antag AC50.
[9] abbreviates: antagonist candidates, inactive samples arbitrarily set to AC50=1,000 μM, read-out: GH3-TRE-Ag AC50.
[10] abbreviates: Table S8, read-out: Average AC50 (uM) GH3-TRE-Antag.

Regarding `CCOC(=O)C1=C(COCCN)NC(C)=C(C(=O)OC)C1c1ccccc1Cl` (centres unmarked) [Amlodipine besylate, reference compound], the half-maximal activity concentration (AC50) at 24 h in the series “in vitro [1]” was 2.15 µM. In addition, the concentration at half-maximal activity (AC50) in series [2] (setting [8]) is 4.56 µM; in series [3] (setting [9]), > 92 µM.
`CN(C)S(=O)(=O)N(SC(F)(Cl)Cl)c1ccccc1` [Dichlofluanid] displayed a 50% cytotoxic concentration (CC50) at 24 h in the series “in vitro [4]” (AC50 (uM) modified / 1000) of 1.43 µM. Moreover, the “activity in GH3-TRE antagonist mode assay” value in series [2] was “active”. Also, in the series on GH3-TRE-Luc cell line [5], the “cytotoxicity in GH3 viability assay” value was “loss of viability at virtually identical concentrations”.
In the case of `CC[C@]12CCCN3CCc4c(n(c5ccccc45)C(=O)C1)[C@@H]32` [(-)-Eburnamonine], it took 7.18 µM to reach half-maximal cytotoxicity in the series “in vitro [4]” (AC50 (uM) modified / 1000) (CC50 at 24 h). The “resp_max GH3-TRE-Antag” value in series [2] (Table S8) is on record as 88.8. Besides, the AC50 in series [2] (setting [10]) stood at 6.85 µM; in the series with GH3-TRE-Luc cell line [5], 7.18 µM. Also, in the series on GH3-TRE-Luc cell line [5], the “resp_max GH3-TRE-Via” value turned out to be 66.2.
`N=C1C=CC(=C(c2ccc(N)cc2)c2ccc(N)cc2)C=C1` [C.I. Basic Red 9 monohydrochloride] had a half-maximal cytotoxic concentration (CC50) at 24 h in “in vitro [4]” (AC50 (uM) modified / 1000) of 8.8 µM. The half-maximal activity concentration (AC50) in series [2] (setting [8]) was 5.15 µM; in series [3] (setting [9]) it was > 92 µM; in series [6] it was 24.2 µM; in the series on GH3-TRE-Luc cell line [5] it was 8.8 µM. In series [6], the “Active in global cytotoxicity assays (%)” value is 66.7%.
As to `CCC(=C(CC)c1ccc(O)cc1)c1ccc(O)cc1` [(Z,E)-Diethylstilbestrol, reference compound], the half-maximal activity concentration (AC50) is 17.1 µM in series [2] (setting [8]), > 92 µM in series [3] (setting [9]) and 12.2 µM with GH3-TRE-Luc cell line [5].
Turning to `CNCC[C@H](Oc1cccc2ccccc12)c1cccs1` [Duloxetine hydrochloride, reference compound], the half-maximal activity concentration (AC50) at 24 h in “in vitro [1]” was found to be 5.69 µM. Moreover, the AC50 in series [2] (read-out: GH3-TRE-Antag AC50, antagonist mode, 1 nM T3) was 6.22 µM; in series [3] (read-out: GH3-TRE-Ag AC50), > 92 µM.
As to `O=C1NCN(c2ccccc2)C12CCN(CCCOc1ccc(F)cc1)CC2` [AMI-193, reference compound], the AC50 in the series with GH3-TRE-Luc cell line [7] (read-out: GH3-TRE-Via AC50, inactive samples arbitrarily set to AC50=1,000 μM) was 14.1 µM; in series [2] (setting [8]) it was 15.8 µM; in series [3] (setting [9]) it was > 92 µM.
Turning to `CC[C@@]1(O)C(=O)OCc2c1cc1n(c2=O)Cc2cc3c(CN(C)C)c(O)ccc3nc2-1` [Topotecan hydrochloride, reference compound], in series [2], the “activity in GH3-TRE antagonist mode assay” value is “complete inhibition of luciferase activity”. For the same molecule, in the series with GH3-TRE-Luc cell line [5], the “cytotoxicity in GH3 viability assay” value is reported as “not considered active”.
`CC[C@H](O)C(C[C@H](C)N(C)C)(c1ccccc1)c1ccccc1` [(-)-alpha-Methadol hydrochloride]: the “resp_max GH3-TRE-Via” value with GH3-TRE-Luc cell line [7] (Table S8) worked out at 67.0. The half-maximal activity concentration (AC50) is 43.2 µM in the series with GH3-TRE-Luc cell line [7] (read-out: Average AC50 GH3-TRE-Via, Table S8, inactive set to 1000) and 58 µM in series [2] (setting [10]). For the same molecule, in the series “in vitro [4]” (AC50 (uM) modified / 1000, Tox21_110001=Tox21_112827, viability, 1 nM T3 present, 24 h), the CC50 at 24 h came to 43.2 µM. Further, the “resp_max GH3-TRE-Antag” value in series [2] (Table S8) is listed as 76.3.
On to `COC(=O)C1=C(C)NC(C)=C(C(=O)OCCN2CCN(C(c3ccccc3)c3ccccc3)CC2)C1c1cccc([N+](=O)[O-])c1` (centres unmarked) [Manidipine dihydrochloride], for which, in “in vitro [4]” (AC50 (uM) modified / 1000), it took 9.06 µM to reach half-maximal cytotoxicity (CC50 at 24 h). Also, the half-maximal activity concentration (AC50) in series [2] (setting [8]) was 7.4 µM; in series [3] (setting [9]), > 92 µM; in series [6], 18.6 µM; with GH3-TRE-Luc cell line [5] it was 9.06 µM. Besides, in series [6], the “Active in global cytotoxicity assays (%)” value is 28.8%.
Turning to `O=C(CO)[C@@H](O)[C@H](O)[C@@H](O)C(=O)O` [Calcium 5-ketogluconate], the “resp_max (maximum response value)” value is recorded as 18.832 percent_activity in the series with GH3-TRE-Luc cell line [7] (Table S2, aeid 805); 6.735 percent_activity in series [2] (Table S2, aeid 804); 2.734 percent_activity in series [3] (Table S2, aeid 803, per sample). Moreover, the 50% cytotoxic concentration (CC50) at 24 h in the series “in vitro [4]” (AC50 (uM) modified / 1000) was > 50 µM. The hitc was 0 in series [2] (Table S2, aeid 804); 0 in series [3] (Table S2, aeid 803, tcpl hit call); 0 in the series on GH3-TRE-Luc cell line [5]. The hitc_modified was 0 in series [2] (Table S2, aeid 804); 0 in series [3] (Table S2, aeid 803, final hitc after manual review); 0 with GH3-TRE-Luc cell line [5]. In addition, the AC50 was > 50 µM in series [2] (Table S2, aeid 804, inactive set to 1000, read-out: AC50 (uM) modified); > 50 µM in series [3] (Table S2, aeid 803, inactive set to 1000, read-out: AC50 (uM) modified); > 50 µM in the series on GH3-TRE-Luc cell line [5]. Moreover, in series [3] (Table S2, aeid 803), the “modl_tp (top asymptote for the winning model)” value is listed as 2.81 percent_activity.

For orientation: AC50 means the concentration at which the activity in the assay is half-maximal. As usually defined, the CC50 is the concentration that lowers cell viability or growth by half. A low value points to harm at low concentration.
